Data on 15 compounds can be found in patent publication US10370360B2, “Small-molecule inhibitors targeting discoidin domain receptor 1 and uses thereof” (priority 2014, dated 2019).

Where two headings read alike, the source gives them in different places.

For data set [1], the target named is c-Kit (Homo sapiens (Human), UniProt P10721). In words: FRET-based Z'-Lyte kinase assay, c-kit. As to conditions: 300 μM ATP. In kind it is biochemical.
For data set [2], the target named is Bcr-Abl (Homo sapiens, UniProt P00519). In words: FRET-based Z'-Lyte kinase assay, Abl. Type of data set: biochemical. As to conditions: 10 μM ATP; cells printed in μM.
Data set [3] relates to PANC-1 cells. In words: MTS viability assay, PANC-1. Type of data set: cell-based. As to conditions: Homo sapiens. (Tetrazolium assays rely on reduction of a dye to a coloured formazan, in cell work by metabolically active cells.)
Data set [4] concerns AsPC-1 cells. Nature of the data set: MTS viability assay, AsPC-1. As to conditions: Homo sapiens. In kind it is cell-based.
Data set [5] concerns the target DDR2 (Homo sapiens (Human), UniProt Q16832). Nature of the data set: LanthaScreen Eu kinase activity assay, DDR2. In kind it is biochemical. As to conditions: 100 nM ATP. On the technique in general: TR-FRET usually uses a lanthanide donor and a delayed reading to cut background.
For data set [6], the target named is DDR1 (Homo sapiens (Human), UniProt Q08345). In words: LanthaScreen Eu kinase activity assay, DDR1. Type of data set: biochemical. As to conditions: 100 nM ATP.
Data set [7] deals with Bcr-Abl. In words: FRET-based Z'-Lyte kinase assay, Abl. In kind it is biochemical. As to conditions: 10 μM ATP; cells printed in μM.
Data set [8] deals with human PDA cell lines. In words: liquid colony forming assay. In kind it is cell-based. As to conditions: concentration-dependent, 1.5-2 weeks.
Data set [9] concerns human PDA cell lines. As to conditions: concentration-dependent, 30 hour.
For data set [10], the system named is KPC mice (PDA). Nature of the data set: survival study, KPC genetically engineered mouse model of PDA. Type of data set: in vivo.
The conditions of data set [11]: rats; Gao et al., 2013; cited from earlier work.
In data set [12] the test system is orthotopic AsPC-1 tumors. Nature of the data set: survival study, orthotopic AsPC-1 xenograft in NOD-SCID mice. Type of data set: in vivo, mouse.

Chain of Bcr-Abl (P00519 whole entry): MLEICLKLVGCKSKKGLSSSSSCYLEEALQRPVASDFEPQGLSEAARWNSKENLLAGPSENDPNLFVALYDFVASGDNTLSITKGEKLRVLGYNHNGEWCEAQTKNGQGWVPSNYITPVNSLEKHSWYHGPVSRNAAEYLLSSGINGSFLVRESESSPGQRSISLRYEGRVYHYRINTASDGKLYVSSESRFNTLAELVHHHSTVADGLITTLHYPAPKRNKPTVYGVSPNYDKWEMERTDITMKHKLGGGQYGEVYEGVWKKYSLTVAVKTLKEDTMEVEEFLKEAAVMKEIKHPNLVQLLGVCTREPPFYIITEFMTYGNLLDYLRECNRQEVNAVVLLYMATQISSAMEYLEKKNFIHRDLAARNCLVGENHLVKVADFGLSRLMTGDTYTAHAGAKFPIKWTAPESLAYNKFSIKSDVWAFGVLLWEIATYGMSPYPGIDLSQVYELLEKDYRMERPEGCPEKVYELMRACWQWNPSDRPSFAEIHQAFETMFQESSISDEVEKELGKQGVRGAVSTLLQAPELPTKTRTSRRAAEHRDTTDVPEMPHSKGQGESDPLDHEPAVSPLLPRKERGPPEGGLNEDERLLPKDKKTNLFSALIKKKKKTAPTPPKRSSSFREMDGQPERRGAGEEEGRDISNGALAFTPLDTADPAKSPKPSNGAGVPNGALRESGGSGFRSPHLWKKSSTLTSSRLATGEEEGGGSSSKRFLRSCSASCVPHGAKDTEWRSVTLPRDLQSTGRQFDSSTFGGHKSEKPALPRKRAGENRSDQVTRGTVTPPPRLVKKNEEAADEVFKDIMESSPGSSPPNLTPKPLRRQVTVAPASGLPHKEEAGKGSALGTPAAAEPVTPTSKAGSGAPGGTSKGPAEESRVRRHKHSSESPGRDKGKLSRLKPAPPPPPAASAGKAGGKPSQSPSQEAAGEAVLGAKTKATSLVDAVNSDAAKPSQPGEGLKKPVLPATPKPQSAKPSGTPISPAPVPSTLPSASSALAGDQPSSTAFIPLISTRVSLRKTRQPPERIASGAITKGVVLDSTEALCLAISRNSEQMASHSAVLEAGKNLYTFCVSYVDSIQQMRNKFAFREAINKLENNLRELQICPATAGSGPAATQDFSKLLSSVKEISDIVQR
Chain of DDR1 (Q08345 19-913): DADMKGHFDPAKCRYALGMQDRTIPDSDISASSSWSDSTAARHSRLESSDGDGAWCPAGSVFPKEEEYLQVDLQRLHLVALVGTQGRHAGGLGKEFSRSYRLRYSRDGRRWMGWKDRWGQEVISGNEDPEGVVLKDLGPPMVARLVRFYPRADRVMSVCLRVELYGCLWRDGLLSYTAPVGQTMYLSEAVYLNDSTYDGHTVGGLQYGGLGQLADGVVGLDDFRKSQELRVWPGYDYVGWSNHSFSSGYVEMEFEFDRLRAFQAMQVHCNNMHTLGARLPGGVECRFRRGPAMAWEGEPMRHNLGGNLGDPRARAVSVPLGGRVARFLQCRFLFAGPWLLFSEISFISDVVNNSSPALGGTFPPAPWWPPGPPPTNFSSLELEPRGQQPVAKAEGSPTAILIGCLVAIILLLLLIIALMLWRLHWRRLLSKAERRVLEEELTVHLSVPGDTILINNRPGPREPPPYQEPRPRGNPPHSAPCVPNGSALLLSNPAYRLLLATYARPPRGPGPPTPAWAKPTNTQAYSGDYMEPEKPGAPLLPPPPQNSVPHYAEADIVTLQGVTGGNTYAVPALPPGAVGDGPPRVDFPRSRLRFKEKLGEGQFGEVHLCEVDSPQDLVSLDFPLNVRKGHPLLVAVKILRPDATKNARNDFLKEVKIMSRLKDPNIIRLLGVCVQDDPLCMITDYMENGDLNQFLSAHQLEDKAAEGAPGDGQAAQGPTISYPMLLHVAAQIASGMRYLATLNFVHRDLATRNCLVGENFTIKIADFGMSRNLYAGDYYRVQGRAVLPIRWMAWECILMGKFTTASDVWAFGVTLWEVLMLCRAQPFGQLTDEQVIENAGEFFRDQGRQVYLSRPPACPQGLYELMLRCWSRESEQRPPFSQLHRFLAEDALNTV
Chain of DDR2 (Q16832 22-855): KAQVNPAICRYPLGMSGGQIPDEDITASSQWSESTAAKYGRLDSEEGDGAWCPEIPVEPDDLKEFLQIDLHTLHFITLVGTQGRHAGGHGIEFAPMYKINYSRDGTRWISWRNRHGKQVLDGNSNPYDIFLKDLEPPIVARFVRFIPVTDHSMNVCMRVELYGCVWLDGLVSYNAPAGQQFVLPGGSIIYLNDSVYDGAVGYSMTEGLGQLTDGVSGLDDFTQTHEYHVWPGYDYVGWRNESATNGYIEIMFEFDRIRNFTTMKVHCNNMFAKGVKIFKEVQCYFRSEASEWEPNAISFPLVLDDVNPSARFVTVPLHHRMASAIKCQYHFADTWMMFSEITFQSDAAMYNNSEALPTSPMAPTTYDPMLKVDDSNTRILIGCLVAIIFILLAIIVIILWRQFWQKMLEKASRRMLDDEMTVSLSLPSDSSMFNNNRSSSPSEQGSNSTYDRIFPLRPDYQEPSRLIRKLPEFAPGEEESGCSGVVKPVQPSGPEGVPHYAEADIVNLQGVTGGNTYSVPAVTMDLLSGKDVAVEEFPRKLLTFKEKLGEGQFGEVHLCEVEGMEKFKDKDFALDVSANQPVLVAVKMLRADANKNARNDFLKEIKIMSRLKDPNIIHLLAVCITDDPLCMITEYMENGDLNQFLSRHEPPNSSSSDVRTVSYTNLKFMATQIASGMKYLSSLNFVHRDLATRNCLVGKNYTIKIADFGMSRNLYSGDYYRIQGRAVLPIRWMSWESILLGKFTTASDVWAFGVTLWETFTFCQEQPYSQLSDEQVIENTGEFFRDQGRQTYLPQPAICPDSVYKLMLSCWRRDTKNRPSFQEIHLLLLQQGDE
Chain of c-Kit (P10721 26-976): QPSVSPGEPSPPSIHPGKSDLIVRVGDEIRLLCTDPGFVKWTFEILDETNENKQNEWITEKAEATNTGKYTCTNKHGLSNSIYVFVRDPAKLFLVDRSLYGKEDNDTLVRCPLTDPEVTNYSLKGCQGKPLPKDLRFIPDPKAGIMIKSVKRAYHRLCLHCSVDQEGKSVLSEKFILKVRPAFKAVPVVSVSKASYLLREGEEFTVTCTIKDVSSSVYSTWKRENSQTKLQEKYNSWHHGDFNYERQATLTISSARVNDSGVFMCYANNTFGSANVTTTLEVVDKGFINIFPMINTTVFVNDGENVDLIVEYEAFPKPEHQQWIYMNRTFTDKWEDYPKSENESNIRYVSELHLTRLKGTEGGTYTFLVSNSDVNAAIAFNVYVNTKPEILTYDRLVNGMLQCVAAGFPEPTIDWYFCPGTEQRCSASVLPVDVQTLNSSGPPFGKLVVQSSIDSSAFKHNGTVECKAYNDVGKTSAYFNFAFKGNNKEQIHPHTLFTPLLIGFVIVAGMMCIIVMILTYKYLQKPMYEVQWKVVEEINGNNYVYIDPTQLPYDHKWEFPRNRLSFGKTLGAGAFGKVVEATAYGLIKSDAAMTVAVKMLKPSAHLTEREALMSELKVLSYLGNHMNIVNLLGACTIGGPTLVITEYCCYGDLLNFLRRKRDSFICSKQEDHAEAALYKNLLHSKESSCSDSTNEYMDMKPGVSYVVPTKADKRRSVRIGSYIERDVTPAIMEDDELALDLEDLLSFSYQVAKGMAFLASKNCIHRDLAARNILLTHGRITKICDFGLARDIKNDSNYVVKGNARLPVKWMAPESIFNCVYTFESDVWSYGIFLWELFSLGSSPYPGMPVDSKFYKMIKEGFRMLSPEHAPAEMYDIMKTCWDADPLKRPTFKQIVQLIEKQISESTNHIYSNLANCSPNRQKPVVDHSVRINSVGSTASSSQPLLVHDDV
Chain of Bcr-Abl (Homo sapiens, UniProt P00519) (P00519 whole entry): as the sequence (P00519 whole entry) above

For `Cc1cn(-c2cc(NC(=O)c3ccc4c(c3)CN(c3cncnc3)CC4C)cc(C(F)(F)F)c2)cn1` (stereo not drawn) [Example 26, 4-methyl-N-(3-(4-methyl-1H-imidazol-1-yl)-5-(trifluoromethyl)phenyl)-2-(pyrimidin-5-yl)-1,2,3,4-tetrahydroisoquinoline-7-carboxamide], the IC50 is greater than 10 µM in data set [1] and 7.2 µM in data set [2].

As for `Nc1ccn([C@@H]2O[C@H](CO)[C@@H](O)C2(F)F)c(=O)n1` [Gemcitabine, gemcitabine], the IC50 in [3] (PANC-1, PANC-1, collagen coating, single agent, read-out: Gemcitabine (nM) Avg IC50s Collagen) is 2000 nM; in data set [3] (PANC-1, PANC-1, plastic coating, single agent, read-out: Gemcitabine (nM) Avg IC50s Plastic) it was greater than 2000 nM; in data set [3] (PANC-1, read-out: 500 nM 7rh + Gem Avg IC50s Plastic, PANC-1, plastic, fixed 500 nM 7rh with gemcitabine titration), no more than 2 nM; in [4] (ASPC1, AsPC-1, collagen coating, single agent, read-out: Gemcitabine (nM) Avg IC50s Collagen) it was 2000 nM; in data set [4] (ASPC1, AsPC-1, plastic coating, single agent, read-out: Gemcitabine (nM) Avg IC50s Plastic) it was greater than 2000 nM; in data set [4] (ASPC1, read-out: 500 nM 7rh + Gem Avg IC50s Plastic, AsPC-1, plastic, fixed 500 nM 7rh with gemcitabine titration), no more than 2 nM.

For the compound `CC1CN(c2cncnc2)Cc2cc(C(=O)Nc3cc(CN4CCN(C5CCCCC5)CC4)cc(C(F)(F)F)c3)ccc21` (stereo not drawn) [Example 33, N-(3-((4-cyclohexylpiperazin-1-yl)methyl)-5-(trifluoromethyl)phenyl)-4-methyl-2-(pyrimidin-5-yl)-1,2,3,4-tetrahydroisoquinoline-7-carboxamide], the IC50 in data set [5] (cells without unit) was 0.945 µM; in [1], greater than 10 µM; in data set [6] it was 0.0799 µM; in data set [7] it was greater than 10 µM.

For `CC1CN(c2cncnc2)Cc2cc(C(=O)Nc3cc(CN(C)C)cc(C(F)(F)F)c3)ccc21` (stereo not drawn) [Example 21, N-(3-((dimethylamino)methyl)-5-(trifluoromethyl)phenyl)-4-methyl-2-(pyrimidin-5-yl)-1,2,3,4-tetrahydroisoquinoline-7-carboxamide], the IC50 was 6.7 µM in data set [5] (cells printed in μM), greater than 10 µM in [1], 0.254 µM in data set [6] and greater than 10 µM in [7].

As to `CCc1ccc(C(=O)Nc2cc(CN3CCN(C)CC3)cc(C(F)(F)F)c2)cc1C#Cc1cnc2ccnn2c1` [Example 7rh, 3-(2-(Pyrazolo[1,5-a]pyrimidin-6-yl)-ethynyl) 7rh benzamide], in data set [8], the colony formation entry is on record as “reduced”. For the same compound, the cell migration entry in data set [9] is on record as “reduced”. The compound further registered a median of survival in [10] (KPC mice enrolled at 4 months of age, 7rh 25 mg/kg 3×/week oral) of 159 days. For the same compound, the “primary tumor growth compared to vehicle” value was “reduced” in [10] (KPC mice, tumor weight vs survival days) and “reduced” in [12] (orthotopic AsPC-1, tumor weight vs survival days). Further, the in vivo half-life in [11] is roughly 12 h. In addition, the median overall survival in [12] (orthotopic AsPC-1, therapy from day 27 post tumor cell injection, 7rh 25 mg/kg 3×/week oral) is 57 days.

Turning to `CC1CN(c2cncnc2)Cc2cc(C(=O)Nc3cc(CN4CCCN(C)CC4)cc(C(F)(F)F)c3)ccc21` (stereo not drawn) [Example 14, 4-methyl-N-(3-((4-methyl-1,4-diazepan-1-yl)methyl)-5-(trifluoromethyl)phenyl)-2-(pyrimidin-5-yl)-1,2,3,4-tetrahydroisoquinoline-7-carboxamide], the IC50 in data set [5] (cells without unit) was 0.604 µM; in [1], greater than 10 µM; in data set [6] it was 0.0256 µM; in data set [7], greater than 10 µM.

In the case of `CC1CN(c2cncnc2)Cc2cc(C(=O)Nc3cccc(C(F)(F)F)c3)ccc21` (stereo not drawn) [Example 13, 4-methyl-2-(pyrimidin-5-yl)-N-(3-(trifluoromethyl)phenyl)-1,2,3,4-tetrahydroisoquinoline-7-carboxamide], the IC50 in data set [5] (cells printed in μM) is 10 µM; in data set [1], greater than 10 µM; in data set [6], 0.191 µM; in data set [7], greater than 10 µM.

In the case of `CC1CN(c2cncnc2)Cc2cc(C(=O)Nc3cc(CN4CCN(C)CC4)cc(C4CCCCC4)c3)ccc21` (stereo not drawn) [Example 22, N-(3-cyclohexyl-5-((4-methylpiperazin-1-yl)methyl)phenyl)-4-methyl-2-(pyrimidin-5-yl)-1,2,3,4-tetrahydroisoquinoline-7-carboxamide], the IC50 in data set [5] (cells without unit) is 0.457 µM; in data set [1], greater than 10 µM; in data set [6], 0.0716 µM; in data set [7] it was greater than 10 µM.

As for `CC1Cc2ccc(C(=O)Nc3cc(CN4CCN(C)CC4)cc(C(F)(F)F)c3)cc2CN1c1cncnc1` (stereo not drawn) [Example 30, 3-methyl-N-(3-((4-methylpiperazin-1-yl)methyl)-5-(trifluoromethyl)phenyl)-2-(pyrimidin-5-yl)-1,2,3,4-tetrahydroisoquinoline-7-carboxamide], the IC50 in data set [5] (cells printed in μM) is 7.6 µM; in data set [1], greater than 10 µM; in [6], 0.544 µM; in data set [7] it was greater than 10 µM.

For `CC1CN(c2cncnc2)Cc2cc(C(=O)Nc3cc(CN4CCSCC4)cc(C(F)(F)F)c3)ccc21` (stereo not drawn) [Example 35, 4-methyl-2-(pyrimidin-5-yl)-N-(3-(thiomorpholinomethyl)-5-(trifluoromethyl)phenyl)-1,2,3,4-tetrahydroisoquinoline-7-carboxamide], the IC50 is 3.7 µM in data set [5] (cells printed in μM), greater than 10 µM in data set [1], 0.209 µM in data set [6] and greater than 10 µM in [7].

Regarding `CC1CN(c2cncnc2)Cc2cc(C(=O)Nc3cc(CCN4CCN(C)CC4)cc(C(F)(F)F)c3)ccc21` (stereo not drawn) [Example 10, 4-methyl-N-(3-(2-(4-methylpiperazin-1-yl)ethyl)-5-(trifluoromethyl)phenyl)-2-(pyrimidin-5-yl)-1,2,3,4-tetrahydroisoquinoline-7-carboxamide], the IC50 was 0.449 µM in [5] (cells without unit), greater than 10 µM in data set [1], 0.0367 µM in data set [6] and greater than 10 µM in data set [7].

On to `CC1CN(c2cncnc2)Cc2cc(C(=O)Nc3cc(CN4CCCC4)cc(C(F)(F)F)c3)ccc21` (stereo not drawn) [Example 20, 4-methyl-2-(pyrimidin-5-yl)-N-(3-(pyrrolidin-1-ylmethyl)-5-(trifluoromethyl)phenyl)-1,2,3,4-tetrahydroisoquinoline-7-carboxamide], for which the IC50 in data set [5] (cells printed in μM) is 2.3 µM; in [1] it was greater than 10 µM; in data set [6] it was 0.222 µM; in [7], greater than 10 µM.

Turning to `CC1CN(c2cncnc2)Cc2cc(C(=O)Nc3cc(CN4CCCCC4)cc(C(F)(F)F)c3)ccc21` (stereo not drawn) [Example 19, 4-methyl-N-(3-(piperidin-1-ylmethyl)-5-(trifluoromethyl)phenyl)-2-(pyrimidin-5-yl)-1,2,3,4-tetrahydroisoquinoline-7-carboxamide], the IC50 in data set [5] (cells printed in μM) was 2.2 µM; in data set [1] it was greater than 10 µM; in data set [6], 0.167 µM; in data set [7], greater than 10 µM.

As for `CC(C)c1cc(CN2CCN(C)CC2)cc(NC(=O)c2ccc3c(c2)CN(c2cncnc2)CC3C)c1` (stereo not drawn) [Example 16, N-(3-isopropyl-5-((4-methylpiperazin-1-yl)methyl)phenyl)-4-methyl-2-(pyrimidin-5-yl)-1,2,3,4-tetrahydroisoquinoline-7-carboxamide], the IC50 is 0.647 µM in data set [5] (cells without unit), greater than 10 µM in data set [1], 0.0357 µM in data set [6] and 7.2 µM in data set [7].

On to `CCN1CCN(Cc2cc(NC(=O)c3ccc4c(c3)CN(c3cncnc3)CC4C)cc(C(F)(F)F)c2)CC1` (stereo not drawn) [Example 17, N-(3-((4-ethylpiperazin-1-yl)methyl)-5-(trifluoromethyl)phenyl)-4-methyl-2-(pyrimidin-5-yl)-1,2,3,4-tetrahydroisoquinoline-7-carboxamide], for which the IC50 is 0.527 µM in data set [5] (cells without unit), greater than 10 µM in data set [1], 0.0391 µM in data set [6] and greater than 10 µM in data set [7].
